Experimental data as given in US20090076067A1, “PHARMACEUTICAL COMPOSITION COMPRISING AZARHODACYANINE COMPOUND AS ACTIVE INGREDIENT” (priority 2005, published 2009).
Where two headings read alike, the source gives them in different places.

Experiments:
[1] = system: Leishmania donovani (MHOM/ET/67/L82 strain); assay: Leishmania protozoa proliferation inhibition screening test; format: cell-based; settings: for Selective toxicity: EC50 rat L6 cells / EC50 leishmania protozoa; for EC50: Leishmania donovani, read-out: EC50 Leishmania donovani
Experimental: In this experiment, Leishmania donovani (MHOM/ET/67/L82 strain) was used. The protozoa were successively cultured in Syrian Golden hamsters to obtain amastigote. The medium used in the experiment was SM medium having heat-treated fetal bovine serum 10% added, and pH prepared to 5.4. The culture was conducted under CO2 concentration 5% and temperature 37° C.
Either the compound of the invention or a positive control (miltefosine) was dissolved into DMSO to prepare test solution having predefined concentration. To each well of a 96-well culture plate, medium containing predetermined number of protozoa was added and the culture was pre-treated. The concentration of amastigote was determined by CASY cell analyze system (Scharfe GMBH Co., Germany). Subsequently, either test solution containing compound of the invention in predefined concentration or DMSO without compound was added. The test solution was duplicated.
The plate was cultured in an incubator for 72 hours, and the proliferation inhibition activity was examined. The activity was determined as follows. To each well, 10 μL Alamar blue aqueous solution was added, then cultured again for 2 hours. Then the culture plate was mounted on a fluorescence microplate reader (Spectramax Gemeni XS; Molecular Devices Corporation, U.S), and irradiated 536 nm excitation wavelength to determine […] at 588 nm. The leishmania infection rate of the sample containing the test compound and that of the control sample was calculated.
Using the protozoa infection rate thus obtained, the proliferation inhibition rate was calculated according to the following equation to determine 50% proliferation inhibition concentration (EC50).
Proliferation inhibition rate(%)={1−(b−a)/(c−a)}×100
a: initial infection rate b: infection rate of test compound solution c: infection rate of the control

[2] = system: Plasmodium berghei NK 65 strain; assay: animal or person; format: in vivo; settings: for Recovery Rate (suppression) / Survival days (mean survival days, treatment group minus control group): 4 days; for Recovery Rate (suppression): P. berghei infected ICR mice
[3] = Rat L6 cell proliferation inhibition test; format: cell-based; settings: read-out: EC50 cytotoxicity L6; for EC50 at 72 h: L6 cells (rat skeletal myoblasts), Table 1, Alamar Blue
[4] = amastigote, 72 hours, Alamar blue
[5] = dose 25 mg/kg/d intraperitoneally
[6] = Plasmodium berghei, ip, 96 h, read-out: Recovery Rate (suppression)

| SMILES | EC50 Leishmania donovani [1, 4] [µg/mL] | Survival days (mean survival days, treatment group minus control group) [2, 5] [days] | Recovery Rate (suppression) [2, 5] [%] | EC50 at 72 h [3] [µg/mL] | Selective toxicity [1] | EC50 [1, 4] [µg/mL] | inhibition in vivo at 25 mg/kg/day [2, 6] [%] | inhibition in vivo at 10 mg/kg/day [2, 6] [%] | also measured |
| --- | --- | --- | --- | --- | --- | --- | --- | --- | --- |
| CCN1C(=O)/C(=c2/s/c(=C3/C=CC=CN3C)c(=O)n2CC)S/C1=N\c1sc2ccccc2[n+]1C [Compound B-30] | 0.11 | 16.0 | 96.4 |  |  |  |  |  | Recovery Rate (suppression) ([2]; dose 10 mg/kg/d intraperitoneally): 70.8%; Recovery Rate (suppression) ([2]; dose 20 mg/kg/d intraperitoneally): 92.4%; Recovery Rate (suppression) ([2]; dose 40 mg/kg/d intraperitoneally): 97.8% |
| CCN1C(=O)/C(=c2/s/c(=C3/SCCN3C)c(=O)n2CC)S/C1=N\c1sc2cc(Cl)ccc2[n+]1C [Compound B-12] |  |  |  | 6.9 | 41 | 0.167 | 88.4 |  |  |
| CCn1c(=O)/c(=C2\SCCN2C)s/c1=C1\S/C(=N\c2sc3cc(Cl)ccc3[n+]2C)N(C(C)C)C1=O [Compound B-37] |  |  |  | 1.44 |  |  | 94.5 |  |  |
| CCN1C(=O)/C(=c2/s/c(=C3/C=CC=CN3C)c(=O)n2CC)S/C1=N\c1sc2cc(Cl)ccc2[n+]1C [Compound B-2] |  | 19.3 |  | 27 |  | 0.249 | 97.1 | 79.8 | inhibition in vivo at 20 mg/kg/day [2, 6]: 97.4%; inhibition in vivo at 40 mg/kg/day [2, 6]: 99.1% |
| CCN1C(=O)/C(=c2/s/c(=C3/SCCN3C)c(=O)n2CC)S/C1=N\c1sc2cc(F)ccc2[n+]1C [Compound B-33] | 0.2015 | 8.7 | 70.5 |  |  |  |  |  |  |
| CCN1C(=O)/C(=C2\Sc3ccccc3N2C)S/C1=N\c1sc2cc(Cl)ccc2[n+]1C [Compound A-1] |  | 2.0 |  | 37.9 | 299 | 0.127 | 62.7 | 54.1 |  |
| CCN1C(=O)/C(=C2\C=Cc3ccccc3N2C)S/C1=N\c1sc2cc(Cl)ccc2[n+]1C [Compound A-2] |  |  |  | 5.5 | 2800 | 0.002 |  | 54.6 |  |
| CCN1C(=O)/C(=c2/s/c(=C3/SCCN3C)c(=O)n2CC)S/C1=N\c1sc2cc(OC)ccc2[n+]1C [Compound B-29] | >0.04 |  | 95.0 |  |  |  |  |  |  |
| CN1/C(=c2\s/c(=C\c3cccc[n+]3CCC(=O)O)n(CC3CO3)c2=O)Sc2ccccc21 (centres unmarked) [Compound S-3, reference compound] |  |  |  |  | >170 |  |  |  | EC50 ([3]; Table 1, rat L6 cells, 72 hours, Alamar Blue): > 90 µg/mL; EC50 ([1]; 72 h): 0.53 µg/mL; inhibition in vivo at 5 mg/kg/day [2, 6]: 29.8%; Survival days (mean survival days, treatment group minus control group) ([2]; dose 5.0 mg/kg/d intraperitoneally): 0 days |
| CCN1C(=O)/C(=c2/s/c(=C3/C=CC=CN3C)c(=O)n2CC)S/C1=N\c1sc2cc(OC)ccc2[n+]1C [Compound B-28] | 0.037 |  | 98.3 |  |  |  |  |  |  |
